Data published in patent US9829488B2, “Paper-based cellular arrays” (President and Fellows of Havard College, priority 2008, dated 2017).

How the values were obtained:
[1] = tested on: HUVEC; test: Three-dimensional migration (invasion) of HUVEC cells in MATRIGEL-permeated paper; format: cell-based, human
Protocol: A suspension of cells in […]™ (1 μL, 10^7 cells/mL) was spotted onto paper, and the paper was immersed in […]™. […] Migration of the cells into the surrounding […]™ was monitored over time using a fluorescent gel scanner. […] The radius of the cell-containing spot served as the measure of the migration. Cell-containing sheets were suspended in endothelial culture media supplemented with 100 ng/mL VEGF (“VEGF”) or 10 μM of small molecule inhibitor of Rho kinase Y27632 (“Y27632”).

[2] = tested on: PC-12 cells; test: Neuronal differentiation of PC-12 cells in paper-supported MATRIGEL (confocal microscopy, neurites); format: cell-based, rat; details: 6 days, 100 ng/mL NGF
Excerpt: Next, we assessed whether PC-12 cells maintained in paper-supported three-dimensional matrices were differentiated into neurons using NGF-treatment. We spotted suspensions of PC12 cells in MATRIGEL™ onto paper and suspended the paper in the media supplemented with NGF or with a combination of NGF and the ROCK inhibitor Y27632. Confocal microscopy examination uncovered neuron-like cells with long neurites. The morphology of cells and length of neurites varied when different media/additives were used.

[3] = tested on: 3T3 fibroblasts; test: Proliferation of 3T3 fibroblasts in MATRIGEL-permeated paper in 96-well plate (Alamar Blue); format: cell-based; details: colchicine added to the wells
Excerpt: One exemplary method is depicted in FIG. 8. In this method, a paper array of the same size is distributed to each well of the microtiter plate to ensure delivery of nearly identical number of cells per well (FIG. 8A). To illustrate this strategy, 2 mm×4 mm pieces of filter paper were permeated with suspension of 3T3 fibroblasts in MATRIGEL™ and then distributed into the wells of a 96-well plate. Alamar Blue was used to estimate the number of cells. […] 3T3 cells proliferated within MATRIGEL™-soaked paper but not within the MATRIGEL™-free paper (FIG. 8B), and this proliferation was halted when colchicine was added to the wells. This system, therefore, can be used to screen for agents that influence proliferation of cells in three-dimensional arrays.

[4] = tested on: PC-12 rat adrenal pheochromocytoma cell line; test: Proliferation of PC-12 cells in MATRIGEL-permeated paper (phalloidin stain, gel scanner); format: cell-based; details: serum-containing media, 100 ng/mL NGF
Protocol: First, we assessed the proliferation of PC-12 cells grown in paper in response to NGF. Suspensions of PC12 cells in MATRIGEL™ (1 uL, 5×10^6 cells/mL) were spotted onto filter paper. The paper was placed in serum-containing media (2.5% fetal bovine serum, 15% horse serum in F12K basal media) or serum-containing media supplemented with 100 ng/mL of nerve growth factor (NGF). Cells within paper MATRIGEL™ matrix were cultured for the indicated times, fixed with formaldehyde, and stained with Alexa Fluor 488-conjugated phalloidin. The paper was scanned using a Typhoon fluorescent gel scanner (see FIG. 13A). Error bars are one standard deviation.

[5] = tested on: PC-12 cells; test: Quantitative PCR of neuronal transcripts NF-L and NPY in PC-12 cells; format: cell-based, rat; details: 100 ng/mL, day 3 or 4, GAPDH as reference
Protocol: Finally, we compared the differentiation of PC-12 cells maintained in paper-supported MATRIGEL™ (“paper”) with that of cells in paper-free MATRIGEL™ (“3D”) or on MATRIGEL™ coated surfaces (“2D”).
Cells in these matrices were proliferated in serum-containing media or in media supplemented with 100 ng/mL NFG. On day 3 or 4, the samples were processed to isolate mRNA and the level of expression of NF-L or NPY were assessed by quantitative PCR. GAPDH and actin were used as housekeeping controls. ΔΔCT-analysis was performed in the linear range for every primer using GAPDH as a reference. In FIG. 14, each data point is an average of measurements from 3 independent samples. The error bar is one standard deviation.

C[C@@H](N)[C@H]1CC[C@H](C(=O)Nc2ccncc2)CC1 [Y27632, reference compound]
outgrowth of cells (migration into surrounding MATRIGEL) ([1]; endothelial culture media + 10 μM Y27632): promoted
neurites developed by cells ([2]; serum-free media, 5 μM Y27632): extensive 3D network of interconnected neurites

COc1cc2c(c(OC)c1OC)-c1ccc(OC)c(=O)cc1[C@@H](NC(C)=O)CC2 [colchicine]
proliferation of 3T3 cells within MATRIGEL-soaked paper [3]: halted

NGF: nerve growth factor
effect on growth rate of the cells [4]: little effect
neurites developed by cells ([2]; serum containing media): short neurites
neurites developed by cells ([2]; serum-free media): longer neurites
level of NF-L expression [5]: induced
level of NPY expression [5]: induced

VEGF
radius of the invasion ([1]; EGM with additional 100 ng/mL VEGF, compared with EGM+10 μM Y27632): significantly lower
